The results in this text go back to ChEMBL document CHEMBL4806969, “Modulators of mas-related g-protein receptor x4 and related products and methods” (2020).

Structures are written as SMILES.

Chain of Mas-related G-protein coupled receptor member X4 (Q96LA9 whole entry): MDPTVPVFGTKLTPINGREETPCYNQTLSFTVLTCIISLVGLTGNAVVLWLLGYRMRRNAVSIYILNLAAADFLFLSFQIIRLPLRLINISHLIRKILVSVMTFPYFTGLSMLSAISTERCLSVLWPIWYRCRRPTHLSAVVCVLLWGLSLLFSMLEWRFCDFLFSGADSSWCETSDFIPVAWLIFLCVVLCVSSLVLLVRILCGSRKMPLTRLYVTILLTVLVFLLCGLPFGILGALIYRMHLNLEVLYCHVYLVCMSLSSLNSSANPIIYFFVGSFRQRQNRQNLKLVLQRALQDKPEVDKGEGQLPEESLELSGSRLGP

This assay has as its target Mas-related G-protein coupled receptor member X4 (Homo sapiens, UniProt Q96LA9). The experiment in a line: Antagonist activity at human MRGPRX4 expressed in HEK cells incubated in dark for 1 hr at 37 degree C and then incubated for 30 mins at room temperature in presence of […] bilirubin by HTRF assay. It counts as functional, cell-based. A general note: Time-resolved FRET reads energy transfer from a long-lived donor to a nearby acceptor.
With `NC(=O)c1cccc(COc2cccc(Cl)c2Cl)c1`, the IC50 was above 2.5 µM.
Consider `Fc1cc(OCc2cccc(-c3nnn[nH]3)c2)ccc1C(F)(F)F`, for which the IC50 is below 0.1 µM.
For `O=C(O)c1cccc(COc2ccc3c(c2)CCC3=O)c1`, the IC50 is above 2.5 µM.
The result for `O=C(O)c1cccc(NC(=O)c2cccc(COc3ccc(C(F)(F)F)cc3Cl)c2)c1` reads above 2.5 µM; that for `N#Cc1cc(COc2ccc(Cl)c(Cl)c2Cl)cc(C(=O)O)c1`, below 0.1 µM; that for `COC(=O)c1cccc(COc2ccc3ccccc3c2)n1`, below 0.1 µM.
For `Cc1cc(COc2ccc(Cl)c(Cl)c2Cl)nc(C(=O)O)c1`, the half-maximal inhibitory concentration (IC50) is below 0.1 µM.
In the case of `O=C(O)c1cccc(COc2ccc(Cl)c(Cl)c2Cl)c1F`, the concentration for half-maximal inhibition (IC50) is below 0.1 µM.
The figure for `N#Cc1ccc(OCc2cccc(C(=O)O)c2)cc1` is above 2.5 µM; for `O=C(O)c1cccc(COc2ccc(C(F)(F)F)cc2)c1F` it is below 0.1 µM; for `N#Cc1cc(COc2ccc(C(F)(F)F)cc2Cl)cc(C(=O)O)c1` it is below 0.1 µM.
`FC(F)(F)c1ccc(OCc2cccc(-c3nnn[nH]3)c2)cc1Cl`: the IC50 was below 0.1 µM.
The figure for `COC(=O)c1cccc(COc2ccc(Cl)cc2Cl)c1` is above 2.5 µM; for `Fc1c(COc2ccc(C(F)(F)F)cc2Cl)cccc1-c1nnn[nH]1` it is below 0.1 µM.
Take `O=C(O)c1cccc(COc2ccc3c(c2)C(=O)CCC3)c1`: the half-maximal inhibitory concentration (IC50) was above 2.5 µM.
Take `Fc1ccc(OCc2cccc(-c3nnn[nH]3)c2)c(Cl)c1`: the concentration for half-maximal inhibition (IC50) is below 0.1 µM.
With `O=C(O)c1cccc(COc2ccc(Cl)c(F)c2)c1`, the 50% inhibitory concentration (IC50) was below 0.1 µM.
The figure for `O=C(O)c1cccc(COc2cccc(C(F)F)c2)c1` is above 2.5 µM; for `COc1cc(COc2ccc(C(F)(F)F)cc2Cl)cc(C(=O)O)c1` it is below 0.1 µM; for `O=C(O)c1cccc(Oc2ccc([N+](=O)[O-])cc2Cl)c1` it is above 2.5 µM.
Consider `CC(=O)c1ccc(OCc2cccc(C(=O)O)c2)cc1`, for which the IC50 was above 2.5 µM.
The result for `O=C(O)c1cc(Br)cc(COc2ccc(C(F)(F)F)cc2Cl)n1` reads below 0.1 µM.
On to `O=C(O)c1cccc(COc2ccc3sccc3c2Cl)c1F`, for which the concentration for half-maximal inhibition (IC50) was below 0.1 µM.
For the molecule `COc1ccc(C(=O)O)cc1COc1ccc(Cl)cc1Cl`, the IC50 is above 2.5 µM.
In the case of `CCOC(=O)c1cccc(COc2ccc(C(F)(F)F)cc2Cl)n1`, the IC50 was below 0.1 µM.
For `COC(=O)c1cccc(COc2ccc(C(F)(F)F)cc2Cl)n1`, the concentration for half-maximal inhibition (IC50) is below 0.1 µM.
The figure for `Cc1cc(CNc2ccc(C(F)(F)F)cc2Cl)nc(C(=O)O)c1` is below 0.1 µM.
As to `O=C(O)c1cccc(COc2ccc(OC(F)(F)F)cc2Cl)n1`, the IC50 was below 0.1 µM.
As to `O=C(O)c1cc(C2CC2)cc(COc2ccc(C(F)(F)F)cc2Cl)n1`, the IC50 is below 0.1 µM.
For the molecule `O=C(O)c1cccc(COc2ccc3ccccc3c2)c1F`, the IC50 was below 0.1 µM.
With `Cc1cc(OCc2cccc(C(=O)O)c2)ccc1OC(F)(F)F`, the half-inhibitory concentration (IC50) is above 2.5 µM.
Turning to `O=C(O)c1cccc(COc2ccc(Cl)cc2Cl)c1Cl`, the concentration for half-maximal inhibition (IC50) was below 0.1 µM.
The figure for `O=C(O)Cc1cccc(COc2ccc(Cl)cc2Cl)c1` is above 2.5 µM; for `Cc1cc(C(F)(F)F)ccc1OCc1cc(F)cc(C(=O)O)c1` it is below 0.1 µM.
As for `O=C(O)c1cc(F)cc(COc2ccc(Cl)c(Cl)c2Cl)c1`, the half-inhibitory concentration (IC50) is below 0.1 µM.
In the case of `O=C(O)c1cccc(COc2ccc3ccccc3c2)n1`, the IC50 is below 0.1 µM.
The result for `O=C(O)c1cccc(COc2ccc(-c3ccccc3)cc2)c1` reads above 2.5 µM; that for `O=C(O)c1cccc(COc2ccc(C(F)(F)F)c(Cl)c2)c1F`, below 0.1 µM; that for `O=C(O)c1cccc(COc2ccc(Cl)c(Cl)c2F)c1`, below 0.1 µM.
On to `Cc1cc(COc2ccc3ccccc3c2)nc(C(=O)O)c1`, for which the IC50 is below 0.1 µM.
Regarding `O=C(c1ccc(COc2ccc(C(F)(F)F)cc2Cl)cc1)N1CC2(COC2)C1`, the IC50 was below 2.5 µM.
For the molecule `O=C(O)c1cc(COc2ccc(C(F)(F)F)cc2Cl)cc(C2CC2)c1`, the 50% inhibitory concentration (IC50) was below 0.1 µM.
The figure for `O=C(O)c1cccc(COc2ccc(Cl)c(F)c2Cl)c1` is below 0.1 µM; for `FC(F)(F)Oc1ccc(OCc2cccc(-c3nnn[nH]3)c2)cc1Cl` it is below 0.1 µM; for `O=C(O)c1cccc(COc2ccccc2Cl)c1F` it is above 2.5 µM.
As to `CC(Oc1ccc(C(F)(F)F)cc1Cl)c1cccc(C(=O)O)c1` (stereo unspecified), the IC50 was below 0.1 µM.
As for `CC(C)c1ccccc1OCc1cccc(C(=O)O)c1`, the IC50 is above 2.5 µM.
For the molecule `COc1cc(COc2ccc(Cl)cc2Cl)cc(C(=O)O)c1`, the 50% inhibitory concentration (IC50) is below 0.1 µM.
Regarding `O=C(O)c1cccc(COc2ccc(OC(F)(F)F)cc2Cl)c1F`, the IC50 was below 0.1 µM.
`FC(F)(F)Oc1ccc(OCc2cccc(-c3nnn[nH]3)c2)c(Cl)c1`: the IC50 was below 0.1 µM.
Consider `O=C(O)c1cccc(COc2ccccc2Cl)c1`, for which the IC50 is above 2.5 µM.
The result for `COCCCNC(=O)c1cccc(COc2ccc(C(F)(F)F)cc2Cl)c1` reads below 0.1 µM; that for `O=C(O)c1nc(COc2ccc(C(F)(F)F)c(Cl)c2)ccc1F`, below 0.1 µM.
The figure for `O=C(O)c1cccc(COc2ccc(C(F)(F)F)cc2Br)c1` is below 0.1 µM.
Take `Fc1cc(COc2ccc(C(F)(F)F)cc2Cl)cc(-c2nnn[nH]2)c1`: the half-maximal inhibitory concentration (IC50) is below 0.1 µM.
For `O=C(O)c1cccc(COc2ccc(OC(F)(F)F)cc2Cl)c1`, the IC50 was below 0.1 µM.
The result for `Cc1cc(C(F)(F)F)ccc1OCc1cccc(C(=O)O)c1` reads below 0.1 µM.
In the case of `O=C(O)c1cccc(COc2ccccc2C(F)F)c1`, the IC50 was above 2.5 µM.
Consider `Fc1ccc(COc2ccc(C(F)(F)F)cc2Cl)cc1-c1nnn[nH]1`, for which the IC50 is below 0.1 µM.
`N#Cc1cc(COc2ccc(OC(F)(F)F)cc2Cl)cc(C(=O)O)c1`: the IC50 is below 0.1 µM.
Regarding `O=C(O)c1nc(COc2ccc(C(F)(F)F)cc2Cl)ccc1F`, the IC50 is below 0.1 µM.
Take `Cc1noc(-c2cccc(COc3ccc(C(F)(F)F)cc3Cl)c2)n1`: the concentration for half-maximal inhibition (IC50) was below 2.5 µM.
The figure for `Cc1ccc(OCc2cccc(C(=O)O)c2)c(Cl)c1Cl` is below 0.1 µM; for `Cc1cc(C(F)(F)F)ccc1OCc1cccc(C(=O)O)n1` it is below 0.1 µM.
Consider `Cc1cc(C(F)(F)F)ccc1OCc1cc(C#N)cc(C(=O)O)c1`, for which the IC50 is below 0.1 µM.
`O=C(O)c1cccc(COc2ccc(Cl)cc2C(F)(F)F)c1F`: the half-inhibitory concentration (IC50) was below 0.1 µM.
In the case of `FC(F)(F)c1ccc(OCc2cccc(-c3nnn[nH]3)n2)c(Cl)c1`, the IC50 is below 0.1 µM.
In the case of `Cc1cc(Cl)ccc1OCc1cccc(-c2nnn[nH]2)c1`, the IC50 was below 0.1 µM.
Consider `N#Cc1cc(COc2ccc(C(F)(F)F)c(Cl)c2)cc(C(=O)O)c1`, for which the 50% inhibitory concentration (IC50) is below 0.1 µM.
The result for `Cc1cc(C(F)(F)F)ccc1OCc1cccc(-c2nnn[nH]2)c1` reads below 0.1 µM; that for `CCc1cc(COc2ccc(Cl)c(Cl)c2Cl)nc(C(=O)O)c1`, below 0.1 µM.
For the molecule `O=C(O)c1cccc(COc2cccc3c2OC(F)(F)O3)c1`, the IC50 was above 2.5 µM.
On to `O=C(O)c1cccc(COc2ccc(C(F)F)cc2Cl)c1`, for which the concentration for half-maximal inhibition (IC50) was below 0.1 µM.
Take `Cc1cc(COc2ccc(Cl)cc2Cl)cc(C(=O)O)c1`: the 50% inhibitory concentration (IC50) is below 0.1 µM.
On to `N#CCc1ccccc1OCc1cccc(C(=O)O)c1`, for which the half-maximal inhibitory concentration (IC50) is above 2.5 µM.
The figure for `c1cc(COc2ccc3ccccc3c2)cc(-c2nnn[nH]2)c1` is below 0.1 µM; for `O=C(O)c1cc(Cl)cc(COc2ccc(C(F)(F)F)cc2Cl)c1` it is below 0.1 µM.
The result for `Cc1cc(OCc2cccc(C(=O)O)c2)ccc1C(F)(F)F` reads above 2.5 µM; that for `CCCc1cc(COc2ccc(C(F)(F)F)cc2Cl)nc(C(=O)O)c1`, below 0.1 µM.
Regarding `O=C(O)c1cc(F)cc(COc2ccc(Cl)cc2Cl)c1`, the IC50 was below 0.1 µM.
In the case of `CCc1cc(COc2ccc3ccccc3c2)nc(C(=O)O)c1`, the half-maximal inhibitory concentration (IC50) is below 0.1 µM.
Regarding `Cc1cc(COc2ccc(C(F)(F)F)cc2Cl)nc(C(=O)O)c1`, the IC50 is below 0.1 µM.
For the molecule `O=C(O)c1cc(Br)cc(COc2ccc(C(F)(F)F)cc2Cl)c1`, the IC50 was below 0.1 µM.
Regarding `O=C(O)c1cccc(COc2ccc(C(F)(F)F)cc2C(F)(F)F)c1`, the IC50 is below 0.1 µM.
For `O=C(O)c1cc(F)cc(COc2ccc3ccccc3c2)c1`, the IC50 is below 0.1 µM.
With `Cc1cc(COc2ccc(C(F)(F)F)c(Cl)c2)cc(C(=O)O)c1`, the IC50 was below 0.1 µM.
In the case of `O=C(O)c1cccc(COc2ccc(C(F)(F)F)c(Cl)c2)n1`, the 50% inhibitory concentration (IC50) is below 0.1 µM.
The result for `Cc1cc(COc2ccc(OC(F)(F)F)cc2Cl)cc(C(=O)O)c1` reads below 0.1 µM; that for `O=C(O)c1cccc(CNc2ccc(C(F)(F)F)cc2Cl)n1`, below 0.1 µM.
`O=C(O)c1cccc(CNc2ccc(C(F)(F)F)cc2Cl)c1`: the 50% inhibitory concentration (IC50) was below 0.1 µM.
With `COC(=O)c1cccc(COc2ccc3scnc3c2)c1`, the half-maximal inhibitory concentration (IC50) was above 2.5 µM.
For `Cc1ccc(COc2ccc(Cl)cc2Cl)cc1C(=O)O`, the IC50 was above 2.5 µM.
For the molecule `CC(C)(C)c1ccccc1OCc1cccc(C(=O)O)c1`, the IC50 is above 2.5 µM.
The result for `Cc1cc(Cl)ccc1OCc1cccc(C(=O)O)c1F` reads below 0.1 µM.
Regarding `N#Cc1cc(COc2ccc(C(F)(F)F)cc2Cl)nc(C(=O)O)c1`, the 50% inhibitory concentration (IC50) is below 0.1 µM.
Turning to `O=C(O)c1cccc(COc2ccc(F)cc2Cl)c1`, the 50% inhibitory concentration (IC50) is above 2.5 µM.
With `Cc1cc(COc2ccc3ccccc3c2)cc(C(=O)O)c1`, the IC50 was below 0.1 µM.
Regarding `O=C(O)c1cccc(COc2ccc(C(F)(F)F)cc2F)c1`, the IC50 is below 0.1 µM.
As to `O=C(O)c1cccc(COc2ccc(C(F)(F)F)c(F)c2)c1`, the IC50 was below 0.1 µM.
Take `O=C(O)c1cccc(COc2c(Cl)cccc2Cl)c1`: the IC50 is above 2.5 µM.
For `O=C(O)c1cccc(COc2ccc(OC(F)(F)F)c(Cl)c2)c1`, the IC50 is below 0.1 µM.
Turning to `O=C(O)c1cc(Cl)cc(COc2ccc(Cl)cc2Cl)c1`, the IC50 is below 0.1 µM.
In the case of `O=C(O)c1cccc(COc2ccc(Oc3ccccc3)cc2)c1`, the IC50 is above 2.5 µM.
The result for `O=C(O)c1cccc(COc2ccc(OC(F)(F)F)c(Cl)c2)n1` reads below 0.1 µM.
On to `O=C(O)CNC(=O)c1cccc(COc2ccc(C(F)(F)F)cc2Cl)c1`, for which the half-maximal inhibitory concentration (IC50) was below 0.1 µM.
For `O=C(O)c1cccc(COc2ccc3ccccc3c2Cl)c1F`, the concentration for half-maximal inhibition (IC50) is below 0.1 µM.

A word on the IC50: it is the concentration needed to halve the response being measured.
